Laboratory results as given in paper doi:10.1101/2022.11.24.517821v4 (biorxiv, 2022).
Where two headings read alike, the source gives them in different places.

Assays:
[1] = target: T1, TAS2R14 (Homo sapiens, UniProt Q9NYV8); assay: IP-One HTRF IP1 accumulation, HEK293T with Galpha-qi5; assay type: cell-based
T1 sequence (Q9NYV8 1-317): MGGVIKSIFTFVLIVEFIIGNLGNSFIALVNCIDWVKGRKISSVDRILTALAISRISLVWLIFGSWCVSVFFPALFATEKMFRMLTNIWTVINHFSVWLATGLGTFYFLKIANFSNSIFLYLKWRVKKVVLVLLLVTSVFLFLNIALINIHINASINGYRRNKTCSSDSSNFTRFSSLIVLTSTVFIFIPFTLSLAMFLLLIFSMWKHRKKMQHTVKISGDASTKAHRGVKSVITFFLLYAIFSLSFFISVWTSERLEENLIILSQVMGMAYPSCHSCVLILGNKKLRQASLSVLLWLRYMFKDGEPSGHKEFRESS

[2] = target: T1, TAS2R14; assay: as above; assay type: cell-based; conditions: antagonist mode, […] min pre-incubation, against […] flufenamic acid, […] °C
[3] = target: T1, TAS2R14; assay: cell-based; parameters: species or system HEK293T
[4] = target: T1, TAS2R14; assay: cell-based; parameters: species or system HEK293T; conditions: HEK-293T, read-out: Emax[%flu acid]

SMILES | IC50 [1] [nM] | IC50 [2] | EC50 [3] [nM] | Emax [4] [%]
O=C(Nc1ccccc1C(=O)O)c1ccc(OC(F)(F)F)cc1 [LF1] | 6800 ± 3200 |  |  | 
Cc1[nH]nc(C(=O)Nc2ccc(C3CCC(F)(F)CC3)cc2)c1C(=O)O [LF14] | 22000 ± 16000 |  |  | 
O=C(c1cc(O)cc(C(F)(F)F)c1)N1CC(c2ccccc2)C1CO (centres unmarked) [LF22] | 7200 ± 3000 |  |  | 
O=C(O)c1cc(I)ccc1Nc1cccc(C(F)(F)F)c1 [LW118] |  | A derivative of flufenamic acid (LW118) |  | 
NS(=O)(=O)c1ccccc1Nc1cccc(OCc2ccccc2)c1 [lw19a] |  |  | 65000 ± 25000 | 100
COC(=O)c1ccccc1Nc1cccc(C(F)(F)F)c1 [lw50] |  |  | 5300 ± 3200 | 47 ± 23
O=C(O)c1ccccc1Nc1cccc(OC(F)(F)F)c1 [lw057] |  |  | 250 ± 60 | 101 ± 5
FC(F)(F)Oc1cccc(Nc2ccccc2-c2nnn[nH]2)c1 [lw070] |  |  | 190 ± 70 | 72 ± 13
FS(F)(F)(F)(F)c1cccc(Nc2ccccc2-c2nnn[nH]2)c1 [lw071] |  |  | 230 ± 90 | 48 ± 3
Clc1cccc(Nc2ccccc2-c2nnn[nH]2)c1 [lw072] |  |  | 170 ± 70 | 67 ± 6
O=C(O)c1ccccc1Nc1ccc(Cl)c(C(F)(F)F)c1 [lw076] |  |  | 200 ± 50 | 67 ± 9
COc1cc(Nc2ccccc2C(=O)O)cc(C(F)(F)F)c1 [lw077] |  |  | 200 ± 60 | 87 ± 5
FC(F)Oc1cccc(Nc2ccccc2-c2nnn[nH]2)c1 [lw083] |  |  | 200 ± 20 | 77 ± 5
FC(F)(F)c1cc(Nc2ccccc2-c2nnn[nH]2)ccc1Cl [lw084] |  |  | 190 ± 20 | 59 ± 1
COc1cc(Nc2ccccc2-c2nnn[nH]2)cc(C(F)(F)F)c1 [lw085] |  |  | 80 ± 20 | 98 ± 3
Cc1c(Nc2ccccc2-c2nnn[nH]2)cccc1C(F)(F)F [lw086] |  |  | 290 ± 50 | 70 ± 4
O=C(O)c1ccccc1Nc1ccc(N2CCOCC2)c(C(F)(F)F)c1 [lw101] |  |  | 2000 ± 490 | 44 ± 5
O=C(O)c1ccccc1Nc1cc(OC2CC2)cc(C(F)(F)F)c1 [lw103] |  |  | 310 ± 50 | 64 ± 3
O=C1COc2c(cc(C(F)(F)F)cc2Nc2ccccc2C(=O)O)N1 [lw104] |  |  | 1800 ± 180 | 74 ± 8

SMILES | IC50 [1] [nM] | IC50 [2] | EC50 [3] [nM] | Emax [4] [%]
O=C(O)c1ccccc1Nc1cc(OCc2ccccc2)cc(C(F)(F)F)c1 [lw105] |  |  | 1700 ± 350 | 66 ± 14
Cc1ccc(C(F)(F)F)cc1Nc1ccccc1-c1nnn[nH]1 [lw113] |  |  | 310 ± 92 | 90 ± 5
FC(F)(F)c1cc(Nc2ccccc2-c2nnn[nH]2)ccc1N1CCOCC1 [lw114] |  |  | 190 ± 20 | 50 ± 7
O=C(O)c1ccccc1Nc1cc([N+](=O)O)cc(C(F)(F)F)c1 [lw119] |  |  | 190 ± 50 | 67 ± 8
Cc1cn(-c2cc(Nc3ccccc3C(=O)O)cc(C(F)(F)F)c2)cn1 [lw122] |  |  | 3700 ± 1200 | 51 ± 11
COc1cc(Nc2ccc(Cl)cc2-c2nnn[nH]2)cc(C(F)(F)F)c1 [lw128] |  |  | 580 ± 180 | 26 ± 4
O=[N+](O)c1cc(Nc2ccccc2-c2nnn[nH]2)cc(C(F)(F)F)c1 [lw130] |  |  | 730 ± 150 | 80 ± 8
COC(=O)c1cc(Nc2ccccc2C(=O)O)cc(C(F)(F)F)c1 [lw153] |  |  | 780 ± 250 | 73 ± 5
NC(=O)c1cc(Nc2ccccc2C(=O)O)cc(C(F)(F)F)c1 [lw154] |  |  | 7200 ± 1000 | 127 ± 13
O=C(O)c1ccccc1Nc1cc(N2CCOCC2)cc(C(F)(F)F)c1 [lw167] |  |  | 700 ± 400 | 41 ± 18
COC(=O)c1cc(Nc2ccccc2-c2nnn[nH]2)cc(C(F)(F)F)c1 [lw169] |  |  | 640 ± 140 | 97 ± 4
NC(=O)c1cc(Nc2ccccc2-c2nnn[nH]2)cc(C(F)(F)F)c1 [lw183] |  |  | 6000 ± 1300 | 86 ± 8
FC(F)(F)c1cc(Nc2ccccc2-c2nnn[nH]2)cc(OC2CC2)c1 [lw190] |  |  | 430 ± 75 | 68 ± 4
Cc1cc(Nc2ccccc2-c2nnn[nH]2)cc(C(F)(F)F)c1 [lw201] |  |  | 590 ± 250 | 81 ± 7
O=C(O)c1cc([N+](=O)[O-])ccc1Nc1cccc(C(F)(F)F)c1 [lw205] |  |  | 270 ± 75 | 82 ± 4
NC(=O)c1ccccc1Nc1cccc(C(F)(F)F)c1 [lw208] |  |  | 11000 ± 750 | 34 ± 4
O=Cc1ccc(Cl)cc1Nc1ccccc1C(=O)O [lw231] |  |  | 3300 ± 460 | 97 ± 7
COC(=O)c1cccc(C(=O)O)c1Nc1cccc(C(F)(F)F)c1 [lw253] |  |  | 480 ± 110 | 42 ± 4
O=C(O)c1ccccc1Nc1cc(C#CC2CC2)cc(C(F)(F)F)c1 [lw271] |  |  | 460 ± 79 | 57 ± 7

SMILES | IC50 [1] [nM] | IC50 [2] | EC50 [3] [nM] | Emax [4] [%]
CCCCc1cc2cccc(C(=O)O)c2n1-c1cccc(C(F)(F)F)c1 [lw273] |  |  | 8300 ± 2400 | 62 ± 6
Oc1cc(-c2ccccc2Nc2cccc(C(F)(F)F)c2)on1 [lw306] |  |  | 3100 ± 1800 | 38 ± 4
CCCCC#Cc1ccc(Nc2ccccc2C(=O)O)cc1C(F)(F)F [lw308] |  |  | 4400 ± 1600 | 87 ± 7
CC#Cc1ccc(Nc2ccccc2C(=O)O)cc1C(F)(F)F [lw310] |  |  | 380 ± 52 | 89 ± 3
CCCCCNC(=O)c1ccc(Nc2ccccc2C(=O)O)cc1C(F)(F)F [lw317] |  |  | 30000 ± 19000 | 66 ± 17
FC(F)(F)c1cc(-c2ccccc2)nc(Nc2ccccc2-c2nnn[nH]2)n1 [lw341] |  |  | 1100 ± 320 | 118 ± 16
COc1ccc(Nc2ccccc2C(=O)O)cc1OCc1ccc(Cl)cc1 [lwbk19] |  |  | 1200 ± 300 | 70 ± 11
COc1ccc(Nc2ccccc2C(=O)O)cc1OCc1cccc(F)c1 [lwbk20] |  |  | 1400 ± 500 | 89 ± 4
COc1cccc(COc2cc(Nc3ccccc3C(=O)O)ccc2OC)c1 [lwbk21] |  |  | 2100 ± 1100 | 88 ± 10
O=C(O)c1ccccc1Nc1cc(C(F)(F)F)cc(C(F)(F)F)c1Cl [lwjk05] |  |  | 150 ± 20 | 84 ± 1
FC(F)(F)c1cc(Nc2ccccc2-c2nnn[nH]2)c(Cl)c(C(F)(F)F)c1 [lwjk06] |  |  | 170 ± 20 | 97 ± 8
Cc1ccc(Nc2ccccc2C(=O)O)cc1OCc1ccc(Cl)cc1 [lwlb17] |  |  | 1300 ± 180 | 70 ± 10
COc1cccc(COc2cc(Nc3ccccc3C(=O)O)ccc2C)c1 [lwlb18] |  |  | 1500 ± 500 | 54 ± 14
Cc1ccc(Nc2ccccc2C(=O)O)cc1OCc1cccc(F)c1 [lwlb19] |  |  | 1900 ± 940 | 70 ± 6
O=C(O)c1ccccc1Nc1cccc(OCc2ccc(Cl)cc2)c1 [lwmr04] |  |  | 1100 ± 180 | 64 ± 2
COc1cccc(COc2cccc(Nc3ccccc3C(=O)O)c2)c1 [lwmr05] |  |  | 740 ± 120 | 70 ± 6
O=C(O)c1ccccc1Nc1cccc(OCc2cccc(F)c2)c1 [lwmr06] |  |  | 420 ± 50 | 71 ± 4
FC(F)(F)c1cccc(Nc2ccccc2-c2cnoc2)c1 [lwph005] |  |  | 12000 ± 8900 | 50 ± 1
FC(F)(F)c1cccc(Nc2ccccc2-c2cnn[nH]2)c1 [lwtp009] |  |  | 12000 ± 1400 | 48 ± 1
